Usually pIC50 stands for −log10 of the IC50, conventionally taken in molar units. In general, inhibition refers to how much of the control response was suppressed.

pIC50: −log10 of the molar value. A value given as a limit tells only on which side of the number the result lay.

Results on 20 compounds are retold here after ChEMBL document CHEMBL3421590, “Pancreatic lipase inhibitory constituents from Morus alba leaves and optimization for extraction conditions” (Bioorg Med Chem Lett, 2015).

Experiment [1] has as its target T1, Pancreatic triacylglycerol lipase (Sus scrofa, UniProt P00591).
T1 sequence (P00591 whole entry): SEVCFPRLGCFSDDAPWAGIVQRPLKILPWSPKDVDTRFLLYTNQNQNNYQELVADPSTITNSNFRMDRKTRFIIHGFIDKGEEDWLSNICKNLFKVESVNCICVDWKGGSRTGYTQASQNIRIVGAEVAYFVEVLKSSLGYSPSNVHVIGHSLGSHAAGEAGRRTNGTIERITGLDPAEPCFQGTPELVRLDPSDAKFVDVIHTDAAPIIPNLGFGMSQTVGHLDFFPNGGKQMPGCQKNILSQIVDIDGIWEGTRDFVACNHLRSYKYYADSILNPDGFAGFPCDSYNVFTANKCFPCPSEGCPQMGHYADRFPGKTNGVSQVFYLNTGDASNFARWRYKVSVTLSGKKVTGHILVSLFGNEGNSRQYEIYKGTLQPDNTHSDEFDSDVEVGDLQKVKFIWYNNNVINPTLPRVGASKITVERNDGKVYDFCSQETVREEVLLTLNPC
As to the kind of experiment: Inhibition of porcine pancreatic lipase using p-nitrophenylbutyrate as substrate assessed as formation of p-nitrophenol preincubated for 15 mins followed by substrate addition measured after 15 mins.

The target in experiment [2] is T2, Pancreatic triacylglycerol lipase (Sus scrofa) (UniProt P00591).
T2 sequence (whole entry): T1 sequence (P00591 whole entry)
As to the kind of experiment: Inhibition of porcine pancreatic lipase using p-nitrophenylbutyrate as substrate assessed as formation of p-nitrophenol at 100 uM preincubated for 15 mins followed by substrate addition measured after 15 mins relative to control.

Take `O=c1c(O)c(-c2ccc(O)cc2)oc2cc(O)cc(O)c12` [KAEMPFEROL]: the pIC50 in experiment [1] was below 4.15. Besides, in experiment [2], the inhibition was determined as 50.3%.

For the compound `O=c1c(O[C@@H]2O[C@H](CO)[C@@H](O)[C@H](O)[C@H]2O)c(-c2ccc(O)cc2)oc2cc(O)cc(O)c12` [ASTRAGALIN], in experiment [1], the pIC50 is below 4.15. For the same compound, in experiment [2], the inhibition worked out at 10.8%.

`Oc1cc(O)cc(-c2cc3cc(O)c(O)cc3o2)c1`: the pIC50 in experiment [1] was 4.19. In addition, the inhibition in experiment [2] came out at 59.1%.

For the compound `Oc1cc(O)cc(-c2cc3ccc(O)cc3o2)c1` [MORACIN M], in experiment [1], the pIC50 is below 4.15. Further, in experiment [2], the inhibition stood at 21.5%.

With `COc1ccc(-c2oc3cc(O)cc(O)c3c(=O)c2OC2O[C@H](CO)[C@@H](O)[C@H](O)[C@H]2O)cc1` (some centres undefined), the pIC50 in experiment [1] is below 4.15. Moreover, in experiment [2], the inhibition worked out at 12.1%.

On to `Oc1cc(O)cc(-c2cc3ccc(O)c(O)c3o2)c1`, for which, in experiment [1], the negative-log IC50 (pIC50) is 4.20. Moreover, the inhibition in experiment [2] came to 55.9%.

For the compound `CC(C)=CCc1cc2cc(-c3cc(O)cc(O)c3)oc2cc1O` [MORACIN N], the pIC50 in experiment [1] is 4.53. Besides, the inhibition in experiment [2] was found to be 61.7%.

Regarding `O=c1cc(-c2ccc(O)cc2O)oc2cc(O)cc(O)c12` [NORARTOCARPETIN], the pIC50 in experiment [1] is below 4.15. Besides, the inhibition in experiment [2] turned out to be 45.3%.

`CC(C)=CCc1c(O)cc(-c2cc3ccc(O)cc3o2)cc1O` [MORACIN C]: the pIC50 in experiment [1] is 4.49. Besides, the inhibition in experiment [2] turned out to be 64.8%.

On to `O=c1c(O)c(-c2ccc(O)c(O)c2)oc2cc(O)cc(O)c12`, for which the inhibition in experiment [2] turned out to be 36.3%.

Consider `CC(C)=CCc1c(-c2ccc(O)cc2O)oc2c(CC=C(C)C)c(O)cc(O)c2c1=O` [KUWANON C], for which, in experiment [1], the negative-log IC50 (pIC50) was 4.73. Further, the inhibition in experiment [2] came to 72.5%.

Regarding `CC(C)=CCC/C(C)=C/Cc1c(O)cc(O)cc1-c1cc2ccc(O)cc2o1` [ALBAFURAN A], in experiment [1], the pIC50 was below 4.15. In addition, the inhibition in experiment [2] stood at 45.4%.

As for `CC1(C)C=Cc2cc3cc(-c4cc(O)cc(O)c4)oc3cc2O1`, the pIC50 in experiment [1] was 4.53. Moreover, in experiment [2], the inhibition is 67.9%.

Take `CC(C)=CCc1c(O)ccc(C(=O)/C=C/c2ccc(O)cc2O)c1O` [MORACHALCONE A]: the pIC50 in experiment [1] is 5.21. Also, the inhibition in experiment [2] was found to be 73%.

Regarding `Oc1cc(O)cc(/C=C/c2ccc(O)cc2O)c1` [OXYRESVERATROL], in experiment [1], the pIC50 is below 4.15. In addition, in experiment [2], the inhibition turned out to be 28.8%.

Turning to `O=C1CC(c2ccc(O)cc2O)Oc2cc(O)ccc21` (centres undefined), the negative logarithm of the IC50 (pIC50) in experiment [1] was 4.25. Also, the inhibition in experiment [2] came to 69.6%.

Turning to `O=C1CC(c2ccc(O)cc2O)Oc2cc(O)cc(O)c21` (centres undefined) [STEPPOGENIN], the pIC50 in experiment [1] was below 4.15. Further, in experiment [2], the inhibition was 4.4%.

For the compound `O=c1c(O[C@@H]2O[C@H](CO)[C@@H](O)[C@H](O)[C@H]2O)c(-c2ccc(O)c(O)c2)oc2cc(O)cc(O)c12` [ISOQUERCETIN], the pIC50 in experiment [1] is below 4.15. For the same compound, the inhibition in experiment [2] was determined as 12.6%.

For the compound `Oc1cc(O)cc(-c2cc3cc4ccoc4cc3o2)c1`, the pIC50 in experiment [1] is below 4.15. In experiment [2], the inhibition was 31.7%.

As to `COc1cc(-c2oc3cc(O)cc(O)c3c(=O)c2O)ccc1O` [ISORHAMNETIN], the pIC50 in experiment [1] was below 4.15. Also, the inhibition in experiment [2] is 32.4%.
